“Also recorded” adds a separate entry of the source.
How the values were obtained:
Assay type in all cases: in vivo, Female Wistar rats
[1] = Carcass body composition (FoodScan NIR) of DIO rats at study conclusion; details: FIG. 3b
Procedure: Carcass composition (body fat, protein and water) is determined using the FoodScan NIR (near infra-red) meat analyser (Foss, UK). Carcasses are milled at the temperature of liquid nitrogen and stored at −20° C. in sealed containers.
Carcass composition data are analysed by robust regression with treatment as factors. Day 1 body weight is included as a covariate.

[2] = Oral glucose (2 g/kg) tolerance test on Day 30 in DIO rats; details: for glucose tolerance (glucose AUC): OGTT 2 g/kg after 30 days of treatment, vs vehicle, FIG. 2a; for AUC of insulin during OGTT: OGTT Day 30, FIG. 2b
Procedure: (§1) In combination studies, sibutramine is dosed once daily with empagliflozin. Orlistat is dosed twice daily: once at the start of the dark phase (in combination with empagliflozin) and again four hours later. Blood samples are taken after approximately 2 and 4 weeks of dosing after a 4 h fast, with the exception of the combination studies with sibutramine and orlistat where samples are taken after an overnight fast. In the studies where empagliflozin is given with either orlistat or sibutramine, animals undergo an oral glucose (2 g/kg) tolerance test on Day 30 after an overnight fast. Blood samples are taken immediately before and 10, 20, 30, 60 and 120 minutes post glucose administration. At the conclusion of each experiment, carcasses are saved for body composition analysis.
(§2) Blood is collected in EDTA-coated collection tubes (Sarstedt) and immediately spun in a cooled centrifuge and the plasma stored frozen. Subsequently, plasma is assayed for content of one or more of the following: glucose, insulin, leptin, glycerol, and triacylglycerol (TAG) content. Blood (collected in an EDTA tube and frozen immediately) is assayed for HbA1c.
(§3) Commercially available enzyme-linked immunosorbent assays (ELISAs) and colorimetric kits are used to assay glucose (Thermo Electron Corp., PA, USA), insulin (Mercodia, Uppsala, Sweden), glycerol and true triglycerides (Sigma, Mo., USA), and leptin (Assay Designs, MI, USA). HbA1c is assayed by a direct enzymatic assay (Diazyme, CA, USA).
(§4) Plasma data are analysed by a general linear model with treatment as a factor. Where appropriate, data undergo a log transformation prior to analysis. Baseline plasma data and Day 1 body weight are included as covariates. HbA1c data are analysed by a robust regression model using M estimation (Huber weighting, using the default parameter c=1.345). Baseline HbA1c levels and Day 1 body weight are included as covariates. Since no differences are observed between the two and four week changes in plasma parameters, only the final plasma data for each study is detailed.

[3] = Plasma metabolic parameters on Day 30 in DIO rats; details: FIG. 3a; for plasma glucose / plasma insulin: after 30 days of treatment, vs vehicle; for plasma leptin: Day 30, overnight fast
Procedure: as §1, §2, §3, §4

[4] = Body weight in diet-induced obese (DIO) rats, chronic oral dosing; details: Day 29, FIG. 1
Procedure: Female Wistar rats (weight range 250-300 g upon arrival) are obtained from Charles River (Margate, Kent) and housed in pairs or threes at a temperature of 21±4° C. and 55±20% humidity. Animals are maintained on a reverse phase light-dark cycle (lights off for 8 h from 09.30-17.30 h) during which time the room is illuminated by red light. Animals have free access to powdered high fat diet (VRF1 plus 20% lard; Special Diet Services (SDS), Witham, UK), ground chocolate (Cadbury's Dairy Milk®), ground peanuts (Big D®, Trigon Snacks Ltd.) and tap water at all times unless specified otherwise. Animals are housed for 20-24 weeks for the induction of obesity. The work reported in this manuscript is performed in accordance with UK law as detailed in the Animals (Scientific Procedures) Act 1986.
Approximately two weeks before the start of the studies, animals are housed singly in polypropylene cages with wire grid floors (so food spillage could be determined). Each cage contains an appropriate amount of paper bedding for warmth, environmental enrichment and to provide an area for animals to get off the wire grid floor. […]
Statistical analysis is performed by a Statistician. Body weight and food and water intake data are assessed by analysis of covariance (ANCOVA) with treatment as a factor, and baseline data as the covariate. […]

| SMILES | body composition [1] | glucose tolerance (glucose AUC) [2] | glucose tolerance (glucose AUC) ([2]; listed as Empagliflozin) | AUC of insulin during OGTT [2] | plasma glucose [3] | plasma insulin [3] | carcass fat / body fat [1] | plasma leptin [3] | weight loss compared with vehicle-treated controls [4] |
| --- | --- | --- | --- | --- | --- | --- | --- | --- | --- |
| OC[C@H]1O[C@@H](c2ccc(Cl)c(Cc3ccc(O[C@H]4CCOC4)cc3)c2)[C@H](O)[C@@H](O)[C@@H]1O [empagliflozin, 1-chloro-4-(β-D-glucopyranos-1-yl)-2-[4-((S)-tetrahydrofuran-3-yloxy)-benzyl]-benzene] | does not significantly affect body composition | improve glucose tolerance | significantly improve glucose tolerance | reduced significantly; also recorded: significant reductions in the glucose and insulin AUC | significantly reduces plasma glucose | significantly reduce plasma insulin; also recorded: either a small effect to reduce plasma insulin or no impact | – | – | – |
| CCCCCCCCCCC[C@@H](C[C@@H]1OC(=O)[C@H]1CCCCCC)OC(=O)[C@H](CC(C)C)NC=O [orlistat] | – | does not significantly affect glucose tolerance | – | not significantly decreased | – | – | significantly and selectively reduce carcass fat | reduce plasma leptin | 2.4% |
| CC(C)CC(N(C)C)C1(c2ccc(Cl)cc2)CCC1 (stereo not drawn) [sibutramine] | – | significantly improve glucose tolerance | – | significant reductions in the glucose and insulin AUC | significantly reduces plasma glucose | significantly reduce plasma insulin; also recorded: reduces plasma insulin | significantly and selectively reduce carcass fat | reduce plasma leptin | 7.0% |
